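Dose response: 5 concentrations. Exposure: 48 h. Format: 96-well plates. Endpoint: linear interpolation; highest concentration if not reached. Here, GI50 denotes the concentration required for 50% inhibition of growth.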 Activity calls are given as the source filed them. No stated cut-off is given here; in the data, active = GI50 up to about 1.1 µM and inactive = higher.
Key:
Experiment in all cases: inhibition of tumour cell growth, NCI panel, 48 h
[1] = system: UACC-257
[2] = system: SN12C
[3] = system: UACC-62
[4] = system: U-251
[5] = system: NCI-H23
[6] = system: PC-3
[7] = system: UO-31
[8] = system: NCI-H522
[9] = system: A549
[10] = system: SR
[11] = system: CCRF-CEM
[12] = system: Malme-3M
[13] = system: ACHN
[14] = system: HL-60
[15] = system: HT-29
[16] = system: DU-145
[17] = system: CAKI-1
[18] = system: MDA-MB-435
[19] = system: HOP-62
[20] = system: SK-MEL-2

SMILES | GI50 [1] | GI50 [2] | GI50 [3] | GI50 [4] | GI50 [5] | GI50 [6] | GI50 [7] | GI50 [8] | GI50 [9] | GI50 [10] | GI50 [11] | GI50 [12] | GI50 [13] | GI50 [14] | GI50 [15] | GI50 [16] | GI50 [17] | GI50 [18] | GI50 [19] | GI50 [20]
Cc1cccc(C)c1NC(=O)Nc1ccc(S(N)(=O)=O)cc1 | > 100 µM (inactive) | > 100 µM (inactive) | > 100 µM (inactive) | > 100 µM (inactive) | > 100 µM (inactive) | > 100 µM (inactive) | > 100 µM (inactive) | > 100 µM (inactive) | > 100 µM (inactive) | > 100 µM (inactive) | > 100 µM (inactive) | > 100 µM (inactive) | > 100 µM (inactive) | > 100 µM (inactive) | > 100 µM (inactive) | > 100 µM (inactive) | > 100 µM (inactive) | > 100 µM (inactive) | > 100 µM (inactive) | > 100 µM (inactive)
COc1ccc(C(=C2C(=O)N(c3ccccc3)C(=O)C2=C(C)C)c2ccc(OC)cc2)cc1 | 5.05 µM (inactive) | 4.02 µM (inactive) | 3.41 µM (inactive) | 3.37 µM (inactive) | > 28 µM (inactive) | 4.33 µM (inactive) | 2.75 µM (inactive) | 1.5 µM (inactive) | 5.21 µM (inactive) | 1.09 µM (active) | 0.546 µM (active) | 6.75 µM (inactive) | 4.69 µM (inactive) | 0.998 µM (active) | 2.43 µM (inactive) | 6.14 µM (inactive) | 3.66 µM (inactive) | 1.45 µM (inactive) | 9.02 µM (inactive) | 3.97 µM (inactive)
O=C1C=C/C(=C/[C@H]2SSC=C[C@]23C=CC(=O)C3)C1 | 28.1 µM (inactive) | 19.3 µM (inactive) | 18 µM (inactive) | 28.5 µM (inactive) | 19.2 µM (inactive) | 24.7 µM (inactive) | 14.8 µM (inactive) | 11 µM (inactive) | 22.8 µM (inactive) | 1.75 µM (inactive) | 2.54 µM (inactive) | 16.9 µM (inactive) | 18.1 µM (inactive) | 2.38 µM (inactive) | 11 µM (inactive) | 20.2 µM (inactive) | 9.91 µM (inactive) | 17.7 µM (inactive) | 27.9 µM (inactive) | 20 µM (inactive)
Cc1ccc(C(=O)Cc2nc3c([nH]c2=O)c(C)nn3-c2ccccc2)c(C)c1 | > 10 µM (inactive) | > 10 µM (inactive) | > 10 µM (inactive) | > 10 µM (inactive) | > 10 µM (inactive) | > 10 µM (inactive) |  | > 10 µM (inactive) | 6.85 µM (inactive) | > 10 µM (inactive) | 5.69 µM (inactive) | > 10 µM (inactive) | > 10 µM (inactive) | 9.04 µM (inactive) | > 10 µM (inactive) | > 10 µM (inactive) | > 10 µM (inactive) | > 10 µM (inactive) | > 10 µM (inactive) | 
COc1ccc(/C=C2\C[C@H]3[C@@H]4CCC5=C/C(=N/O)CC[C@]5(C)[C@H]4CC[C@]3(C)\C2=N\O)cc1OC | 6.07 µM (inactive) | 12.7 µM (inactive) | 22.2 µM (inactive) |  | 43.4 µM (inactive) | 10.7 µM (inactive) | 4.5 µM (inactive) | 23.1 µM (inactive) | 6.98 µM (inactive) | 6.14 µM (inactive) | 6.76 µM (inactive) | 43.5 µM (inactive) | 14.5 µM (inactive) | 4.72 µM (inactive) | 7.66 µM (inactive) | 63.4 µM (inactive) | 8.43 µM (inactive) | 18.8 µM (inactive) | 40.6 µM (inactive) | 15.9 µM (inactive)
COc1cccc(N2C(=O)CSC2c2cccc(Oc3ccccc3)c2)c1 (centres undefined) | 3.08 µM (inactive) | 7.98 µM (inactive) | 3.21 µM (inactive) | 5.22 µM (inactive) | 11.5 µM (inactive) | 5.3 µM (inactive) | 9.66 µM (inactive) | 3.34 µM (inactive) | 9.53 µM (inactive) | 3.79 µM (inactive) | 9.33 µM (inactive) | 9.02 µM (inactive) | 6.17 µM (inactive) | 4.39 µM (inactive) | 4.28 µM (inactive) | 20.4 µM (inactive) | 2.03 µM (inactive) | 2.81 µM (inactive) | 9.38 µM (inactive) | 4.28 µM (inactive)
Cc1ccnc2nc(N)ccc12 | > 100 µM (inactive) | > 100 µM (inactive) | > 100 µM (inactive) | > 100 µM (inactive) | > 100 µM (inactive) | > 100 µM (inactive) | > 100 µM (inactive) | > 100 µM (inactive) | > 100 µM (inactive) | > 100 µM (inactive) | > 100 µM (inactive) | > 100 µM (inactive) | > 100 µM (inactive) | > 100 µM (inactive) | > 100 µM (inactive) | > 100 µM (inactive) | > 100 µM (inactive) | > 100 µM (inactive) |  | > 100 µM (inactive)
C=CCc1cccc2cc(C(=O)Nc3ccc(C)cc3)c(=N)oc12 | > 100 µM (inactive) | > 100 µM (inactive) | > 100 µM (inactive) | > 100 µM (inactive) | > 100 µM (inactive) | > 100 µM (inactive) |  | > 100 µM (inactive) | > 100 µM (inactive) | > 100 µM (inactive) | > 100 µM (inactive) | > 100 µM (inactive) | > 100 µM (inactive) | > 100 µM (inactive) | > 100 µM (inactive) | > 100 µM (inactive) | > 100 µM (inactive) | > 100 µM (inactive) | > 100 µM (inactive) | 45.2 µM (inactive)
CC1(C)CN=C(Nc2ccc(F)cc2)S1 | > 100 µM (inactive) | > 100 µM (inactive) | > 100 µM (inactive) | > 100 µM (inactive) | > 100 µM (inactive) | > 100 µM (inactive) | > 100 µM (inactive) | > 100 µM (inactive) | > 100 µM (inactive) | > 100 µM (inactive) | > 100 µM (inactive) | > 100 µM (inactive) | > 100 µM (inactive) | > 100 µM (inactive) | > 100 µM (inactive) | > 100 µM (inactive) | > 100 µM (inactive) | > 100 µM (inactive) | > 100 µM (inactive) | > 100 µM (inactive)
Cc1cc(=O)n2nc(CCl)sc2n1 | 10.2 µM (inactive) | 14.3 µM (inactive) | 14.4 µM (inactive) | 5.13 µM (inactive) | 23.2 µM (inactive) | 13.3 µM (inactive) | 14.3 µM (inactive) | 5.57 µM (inactive) | 16.5 µM (inactive) | 13.1 µM (inactive) | 6.62 µM (inactive) | 12.8 µM (inactive) | 14.3 µM (inactive) | 17.3 µM (inactive) | 14.8 µM (inactive) | 18.1 µM (inactive) | 10.3 µM (inactive) | 12.7 µM (inactive) | 18.1 µM (inactive) | 10.5 µM (inactive)
O=C(O)C(O)Cc1ccccn1 (centres undefined) | > 100 µM (inactive) |  | > 100 µM (inactive) | > 100 µM (inactive) | > 100 µM (inactive) | > 100 µM (inactive) | > 100 µM (inactive) | > 100 µM (inactive) | > 100 µM (inactive) | > 100 µM (inactive) | > 100 µM (inactive) | > 100 µM (inactive) | > 100 µM (inactive) | > 100 µM (inactive) | > 100 µM (inactive) | > 100 µM (inactive) | > 100 µM (inactive) | > 100 µM (inactive) | > 100 µM (inactive) | > 100 µM (inactive)
Cc1cc(=O)nc(S(=O)(=O)NC(=S)Nc2ccc(Cl)cc2)[nH]1 | > 100 µM (inactive) | > 100 µM (inactive) | > 100 µM (inactive) | > 100 µM (inactive) | > 100 µM (inactive) | > 100 µM (inactive) | > 100 µM (inactive) | 27.1 µM (inactive) | > 100 µM (inactive) | 18.8 µM (inactive) | > 100 µM (inactive) | > 100 µM (inactive) | > 100 µM (inactive) | > 100 µM (inactive) | > 100 µM (inactive) | > 100 µM (inactive) | 77.8 µM (inactive) | > 100 µM (inactive) | > 100 µM (inactive) | > 100 µM (inactive)

Source: ChEMBL document CHEMBL1201862, “PubChem BioAssay data set” (2004)
